Reference: US20250120417A1, “FEED ADDITIVE COMPOSITIONS AND METHODS FOR USING THE SAME” (INT[…]&H DENMARK APS, priority 2021, published 2025)

How the values were obtained:
NetB toxin = format: cell-based, Clostridium perfringens strain 25037-CP01
HT-29 cells = format: cell-based, human
netB gene = format: cell-based, Clostridium perfringens

CC(=O)[O-].[Na+] [sodium acetate]
level of extracellular NetB toxin secreted into the media (NetB toxin): reduced

N[C@@H](CC(=O)O)C(=O)O [aspartic acid]
HT29 cell death (HT-29 cells): less than 10%
netB expression / toxin producing population in single cell data (netB gene): marked reduction
level of extracellular NetB toxin secreted into the media (NetB toxin): lower the level

Cc1ncc(C[n+]2csc(CCO)c2C)c(N)n1 [Vitamin B1]
level of extracellular NetB toxin secreted into the media (NetB toxin): reduced

Vitamin B12
level of extracellular NetB toxin secreted into the media (NetB toxin): reduced

Cc1ncc(CO)c(CO)c1O.Cl [Vitamin B6]
level of extracellular NetB toxin secreted into the media (NetB toxin): reduced

NCCC[C@H](N)C(=O)O [ornithine]
netB expression / toxin producing population in single cell data (netB gene): small reduction

ammonium phosphate
level of extracellular NetB toxin secreted into the media (NetB toxin): reduced

N=C(N)NCCC[C@H](N)C(=O)O [arginine]
netB expression / toxin producing population in single cell data (netB gene): small reduction
